Source: patent publication US20260365682A1, “MODULATORS OF TNF-ALPHA ACTIVITY” (Forward Therapeutics, Inc., priority 2022, published 2026)

Target: T1, TNF-α (Homo sapiens, UniProt P01375)
T1 construct: purchased R&D 210-TA-020/CF
Experiment: TNF-α Induced HEK Blue Cellular Assay (secreted alkaline phosphatase expression, QUANTI-Blue)
Format: cell-based
Conditions: HEK Blue TNFα reporter cells; TNF-α 100 μg/ml; 24 hrs at 37° C.; inhibition of secreted alkaline phosphatase; read-out: IC50 value
How it was run: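 HEK Blue TNFα reporter cells (10,000/well) in DMEM with 10% FBS received compound ([…] to 0.5 nM final) and TNF-α at […] final for 24 h at 37° C. Secreted alkaline phosphatase read with QUANTI-Blue at 620 nm. IC50 came from a 4-parameter logistic fit after normalising to unstimulated and stimulated DMSO controls.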

T1 sequence (P01375 77-233 limits assumed): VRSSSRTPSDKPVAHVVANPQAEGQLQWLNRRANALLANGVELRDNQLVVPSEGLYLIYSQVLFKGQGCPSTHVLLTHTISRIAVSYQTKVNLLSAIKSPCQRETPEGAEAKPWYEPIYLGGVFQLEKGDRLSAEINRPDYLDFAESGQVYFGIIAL

Compound	IC50 [µM]
[2H]C([2H])([2H])N1C(=O)c2cccc(OC(F)F)c2[C@H]2C[C@@H]1c1nc3ccc(C#CCCN4CC(F)(F)C4)cc3n12 [Example 233, (7R,14R)-11-(4-(3,3-difluoroazetidin-1-yl)but-1-yn-1-yl)-1-(difluoromethoxy)-6-(methyl-d3)-6,7-dihydro-7,14-methanobenzo[f]benzo[4,5]imidazo[1,2-a][1,4]diazocin-5(14H)-one]	< 0.1
[2H]C([2H])([2H])N1C(=O)c2cccc(OC(F)F)c2[C@H]2C[C@@H]1c1nc3ccc(C#CC4CCN(C5CC5)C4)cc3n12 (stereo partly drawn) [Example 234, (7R,14R)-11-((1-cyclopropylpyrrolidin-3-yl)ethynyl)-1-(difluoromethoxy)-6-(methyl-d3)-6,7-dihydro-7,14-methanobenzo[f]benzo[4,5]imidazo[1,2-a][1,4]diazocin-5(14H)-one]	< 0.1
[2H]C([2H])([2H])N1C(=O)c2cccc(OC(F)F)c2[C@H]2C[C@@H]1c1nc3ccc(C#CC4CCN(C5COC5)C4)cc3n12 (stereo partly drawn) [Example 237, (7R,14R)-1-(difluoromethoxy)-6-(methyl-d3)-11-((1-(oxetan-3-yl)pyrrolidin-3-yl)ethynyl)-6,7-dihydro-7,14-methanobenzo[f]benzo[4,5]imidazo[1,2-a][1,4]diazocin-5(14H)-one]	< 0.1
[2H]C([2H])([2H])N1C(=O)c2cccc(OC(F)F)c2[C@H]2C[C@@H]1c1nc3ccc(C#CC4CN(C(C)C(F)F)C4)cc3n12 (stereo partly drawn) [Example 238, (7R,14R)-1-(difluoromethoxy)-11-((1-(1,1-difluoropropan-2-yl)azetidin-3-yl)ethynyl)-6-(methyl-d3)-6,7-dihydro-7,14-methanobenzo[f]benzo[4,5]imidazo[1,2-a][1,4]diazocin-5(14H)-one]	< 0.1
[2H]C([2H])([2H])N1C(=O)c2cccc(OC(F)F)c2[C@H]2C[C@@H]1c1nc3ccc(C#CC(C)CN4CC(F)C4)cc3n12 (stereo partly drawn) [Example 248, (7R,14R)-1-(difluoromethoxy)-11-(4-(3-fluoroazetidin-1-yl)-3-methylbut-1-yn-1-yl)-6-(methyl-d3)-6,7-dihydro-7,14-methanobenzo[f]benzo[4,5]imidazo[1,2-a][1,4]diazocin-5(14H)-one]	0.1 to 1
[2H]C([2H])([2H])N1C(=O)c2cccc(OC(F)F)c2[C@H]2C[C@@H]1c1nc3ccc(C#Cc4cnc(N)nc4)cc3n12 [Example 249, (7R,14R)-11-((2-aminopyrimidin-5-yl)ethynyl)-1-(difluoromethoxy)-6-(methyl-d3)-6,7-dihydro-7,14-methanobenzo[f]benzo[4,5]imidazo[1,2-a][1,4]diazocin-5(14H)-one]	< 0.1
[2H]C([2H])([2H])N1C(=O)c2cccc(OC(F)F)c2[C@H]2C[C@@H]1c1nc3ccc(C#CC4(O)CN(C5COC5)C4)cc3n12 [Example 250, (7R,14R)-1-(difluoromethoxy)-11-((3-hydroxy-1-(oxetan-3-yl)azetidin-3-yl)ethynyl)-6-(methyl-d3)-6,7-dihydro-7,14-methanobenzo[f]benzo[4,5]imidazo[1,2-a][1,4]diazocin-5(14H)-one]	< 0.1
[2H]C([2H])([2H])N1C(=O)c2cccc(OC(F)F)c2[C@H]2C[C@@H]1c1nc3ccc(C#CC4(O)CNC4)cc3n12 [Example 251, (7R,14R)-1-(difluoromethoxy)-11-((3-hydroxyazetidin-3-yl)ethynyl)-6-(methyl-d3)-6,7-dihydro-7,14-methanobenzo[f]benzo[4,5]imidazo[1,2-a][1,4]diazocin-5(14H)-one]	10 to 30
[2H]C([2H])([2H])N1C(=O)c2cccc(OC(F)F)c2[C@H]2C[C@@H]1c1nc3ccc(C#CC4(F)CNC4)cc3n12 [Example 253, (7R,14R)-1-(difluoromethoxy)-11-((3-fluoroazetidin-3-yl)ethynyl)-6-(methyl-d3)-6,7-dihydro-7,14-methanobenzo[f]benzo[4,5]imidazo[1,2-a][1,4]diazocin-5(14H)-one]	< 0.1
[2H]C([2H])([2H])N1C(=O)c2cccc(OC(F)F)c2[C@H]2C[C@@H]1c1nc3ccc(C#Cc4ccc(NC(C)=O)nc4)cc3n12 [Example 255, N-(5-(((7R,14R)-1-(difluoromethoxy)-6-(methyl-d3)-5-oxo-5,6,7,14-tetrahydro-7,14-methanobenzo[f]benzo[4,5]imidazo[1,2-a][1,4]diazocin-11-yl)ethynyl)pyridin-2-yl)acetamide]	< 0.1
[2H]C([2H])([2H])N1C(=O)c2cccc(OC(F)F)c2[C@H]2C[C@@H]1c1nc3ccc(C#CC4CN(C5COC5)C4(C)C)cc3n12 (stereo partly drawn) [Example 256, (7R,14R)-1-(difluoromethoxy)-11-((2,2-dimethyl-1-(oxetan-3-yl)azetidin-3-yl)ethynyl)-6-(methyl-d3)-6,7-dihydro-7,14-methanobenzo[f]benzo[4,5]imidazo[1,2-a][1,4]diazocin-5(14H)-one]	< 0.1
[2H]C([2H])([2H])N1C(=O)c2cccc(OC(F)F)c2[C@H]2C[C@@H]1c1nc3ccc(C#Cc4cnc(NC(C)=O)nc4)cc3n12 [Example 259, N-(5-(((7R,14R)-1-(difluoromethoxy)-6-(methyl-d3)-5-oxo-5,6,7,14-tetrahydro-7,14-methanobenzo[f]benzo[4,5]imidazo[1,2-a][1,4]diazocin-11-yl)ethynyl)pyrimidin-2-yl)acetamide]	< 0.1
[2H]C([2H])([2H])N1C(=O)c2cccc(OC(F)F)c2[C@H]2C[C@@H]1c1nc3ccc(C#Cc4nnc(NC(C)=O)s4)cc3n12 [Example 260, N-(5-(((7R,14R)-1-(difluoromethoxy)-6-(methyl-d3)-5-oxo-5,6,7,14-tetrahydro-7,14-methanobenzo[f]benzo[4,5]imidazo[1,2-a][1,4]diazocin-11-yl)ethynyl)-1,3,4-thiadiazol-2-yl)acetamide]	< 0.1
[2H]C([2H])([2H])N1C(=O)c2cccc(OC(F)F)c2[C@H]2C[C@@H]1c1nc3ccc(C#Cc4nnc(NC(=O)OC(C)(C)C)s4)cc3n12 [Example 261, tert-butyl (5-(((7R,14R)-1-(difluoromethoxy)-6-(methyl-d3)-5-oxo-5,6,7,14-tetrahydro-7,14-methanobenzo[f]benzo[4,5]imidazo[1,2-a][1,4]diazocin-11-yl)ethynyl)-1,3,4-thiadiazol-2-yl)carbamate]	< 0.1

Now from value to molecule:

IC50 [µM]	Compound
0.1 to 1	[2H]C([2H])([2H])N1C(=O)c2cccc(OC(F)F)c2[C@H]2C[C@@H]1c1nc3ccc(C#CCN4CC(F)C4)cc3n12 [Example 232, (7R,14R)-1-(difluoromethoxy)-11-(3-(3-fluoroazetidin-1-yl)prop-1-yn-1-yl)-6-(methyl-d3)-6,7-dihydro-7,14-methanobenzo[f]benzo[4,5]imidazo[1,2-a][1,4]diazocin-5(14H)-one]
< 0.1	[2H]C([2H])([2H])N1C(=O)c2cccc(OC(F)F)c2[C@H]2C[C@@H]1c1nc3ccc(C#CCN4CC[C@H](F)C4)cc3n12 [Example 235, (7R,14R)-1-(difluoromethoxy)-11-(3-((S)-3-fluoropyrrolidin-1-yl)prop-1-yn-1-yl)-6-(methyl-d3)-6,7-dihydro-7,14-methanobenzo[f]benzo[4,5]imidazo[1,2-a][1,4]diazocin-5(14H)-one]
< 0.1	[2H]C([2H])([2H])N1C(=O)c2cccc(OC(F)F)c2[C@H]2C[C@@H]1c1nc3ccc(C#CCN4CC[C@@H](F)C4)cc3n12 [Example 236, (7R,14R)-1-(difluoromethoxy)-11-(3-((R)-3-fluoropyrrolidin-1-yl)prop-1-yn-1-yl)-6-(methyl-d3)-6,7-dihydro-7,14-methanobenzo[f]benzo[4,5]imidazo[1,2-a][1,4]diazocin-5(14H)-one]
< 0.1	[2H]C([2H])([2H])N1C(=O)c2cccc(OC(F)F)c2[C@H]2C[C@@H]1c1nc3ccc(C#CC(F)F)cc3n12 [Example 247, (7R,14R)-1-(difluoromethoxy)-11-(3,3-difluoroprop-1-yn-1-yl)-6-(methyl-d3)-6,7-dihydro-7,14-methanobenzo[f]benzo[4,5]imidazo[1,2-a][1,4]diazocin-5(14H)-one]
< 0.1	[2H]C([2H])([2H])N1C(=O)c2cccc(OC(F)F)c2[C@H]2C[C@@H]1c1nc3ccc(C#CC4(F)CN(C5COC5)C4)cc3n12 [Example 252, (7R,14R)-1-(difluoromethoxy)-11-((3-fluoro-1-(oxetan-3-yl)azetidin-3-yl)ethynyl)-6-(methyl-d3)-6,7-dihydro-7,14-methanobenzo[f]benzo[4,5]imidazo[1,2-a][1,4]diazocin-5(14H)-one]
< 0.1	[2H]C([2H])([2H])N1C(=O)c2cccc(OC(F)F)c2[C@H]2C[C@@H]1c1nc3ccc(C#C[C@H]4C[C@H](NC)C4)cc3n12 [Example 254, (7R,14R)-1-(difluoromethoxy)-6-(methyl-d3)-11-(((1r,3R)-3-(methylamino)cyclobutyl)ethynyl)-6,7-dihydro-7,14-methanobenzo[f]benzo[4,5]imidazo[1,2-a][1,4]diazocin-5(14H)-one]

Same assay, conditions: IC50 value, HEK Blue TNFα reporter cells; TNF-α 100 μg/ml; 24 hrs at 37° C.; inhibition of secreted alkaline phosphatase

IC50 [µM]	Compound
< 0.1	[2H]C([2H])([2H])N1C(=O)c2cccc(OC(F)F)c2[C@H]2C[C@@H]1c1nc3ccc(C#CCNC4CC4)cc3n12 [Example 241, (7R,14R)-11-(3-(cyclopropylamino)prop-1-yn-1-yl)-1-(difluoromethoxy)-6-(methyl-d3)-6,7-dihydro-7,14-methanobenzo[f]benzo[4,5]imidazo[1,2-a][1,4]diazocin-5(14H)-one]
< 0.1	[2H]C([2H])([2H])N1C(=O)c2cccc(OC(F)F)c2[C@H]2C[C@@H]1c1nc3ccc(C#CCNC4COC4)cc3n12 [Example 242, (7R,14R)-1-(difluoromethoxy)-6-(methyl-d3)-11-(3-(oxetan-3-ylamino)prop-1-yn-1-yl)-6,7-dihydro-7,14-methanobenzo[f]benzo[4,5]imidazo[1,2-a][1,4]diazocin-5(14H)-one]
